Data taken from publication PMC3753754, “Andrographis paniculata Extract and Andrographolide Modulate the Hepatic Drug Metabolism System and Plasma Tolbutamide Concentrations in Rats” (Evidence-based Complementary and Alternative Medicine : eCAM, 2013).
Marks after values point to notes of the source that are not given here.

Tests used:
[1] = tested on: UDP-glucuronosyltransferase; experiment: Microsomal UGT activity (p-nitrophenol substrate) in liver of treated rats; assay type: in vivo; conditions: rat liver; oral 2 g/kg APE or 50 mg/kg AND daily for 5 days
Description: The microsomal UGT activity was determined by using p-nitrophenol as the substrate. The rate of formation of p-nitrophenol glucuronic acid was measured by HPLC/UV [31]. GST activity was determined spectrophotometrically by measuring the formation rate of GSH conjugates.

CYP3A = experiment: Testosterone 6β-hydroxylation in liver microsomes of treated rats; assay type: in vivo; conditions: rat liver microsomes; oral 2 g/kg APE or 50 mg/kg AND daily for 5 days
Description: (§1) Liver was homogenized (1 : 4, w/v) in an ice-cold potassium phosphate buffer (pH 7.4) containing 7.4 mM K2HPO4, 2.6 mM KH2PO4, 1.15% KCl, and 1 mM phenylmethylsulfonyl fluoride (PMSF). Tissue homogenates were centrifuged at 10,000 ×g for 30 min at 4°C. The resulting supernatant was then centrifuged at 105,000 ×g for 1 h at 4°C. The microsomes thus obtained were washed several times to get rid of possible tolbutamide contamination and this can avoid tolbutamide interference of CYP activity, and the microsomes were then suspended in potassium phosphate buffer (pH 7.7) containing 7.5 mM K2HPO4, 14.5 mM KH2PO4, and 1 mM EDTA. […] Metabolites of each CYP enzyme reaction were determined by LC/MS as reported previously. The contents of total CYP and cytochrome b5 were quantified by the method of Omura and Sato [29]. Enzyme activity is expressed as picomoles of metabolite formed per minute per milligram of protein. The NADPH-CYP reductase activity was measured as described by Phillips and Langdon with the use of cytochrome c as the substrate. The microsomal protein concentration was determined by using a Coomassie Plus protein assay kit (Pierce, Rockford, IL, USA).

CYP4A = experiment: Lauric acid 12-hydroxylation in liver microsomes of treated rats; assay type: in vivo; conditions: rat liver microsomes; oral 2 g/kg APE or 50 mg/kg AND daily for 5 days
Description: as §1

Cytochrome b5 = Cytochrome b5 content in liver microsomes of treated rats; assay type: in vivo; conditions: rat liver microsomes; oral 2 g/kg APE or 50 mg/kg AND daily for 5 days
Description: as §1

[2] = Pharmacokinetics of tolbutamide in control, APE-pretreated and andrographolide-pretreated rats; assay type: in vivo, Sprague-Dawley rats; conditions: rats, 2 g/kg/day APE or 50 mg/kg/day andrographolide for 5 days before 20 mg/kg tolbutamide
Description: Seven-week-old male Sprague-Dawley rats cannulated in the jugular vein were purchased from the Bio LASCO Experimental Animal Center (Taipei, Taiwan). The animals were fed a standard rat diet and were randomly assigned into control, APE-treated, and andrographolide-treated groups (n = 5). Rats were housed in plastic cages in a room kept at 23 ± 1°C and 60 ± 5% relative humidity with a 12-hour light and dark cycle. Food and drinking water were available ad libitum. Control rats were orally administered methyl cellulose. […] After the 5th daily dose, rats were deprived of food overnight. On day 6, a 20 mg/kg oral dose of tolbutamide, as a solution in Cremophor EL (polyoxyl 35 hydrogenated castor oil, Sigma)/ethanol/water (30/10/60, v/v/v), was administered to each rat. After the administration of tolbutamide, serial blood samples were collected up to 12 h after dosing from each rat. The animals were then killed by exsanguination, and the livers were collected.
Tolbutamide was prepared in a solution of Cremophor EL/ethanol/water (30/10/60, v/v/v). After administration, blood samples (~200 μL) were collected from the tail vein of each rat at 0.25, 0.5, 1, 2, 4, 8, and 12 h after dosing. Plasma was separated from blood by centrifugation (4000 ×g for 20 min at 4°C). An aliquot of 50 μL plasma was mixed with 100 μL acetonitrile and then centrifuged at 10,000 ×g for 15 min at 4°C. The supernatant was used to determine the concentration of tolbutamide by LC/MS. Calibration standards of tolbutamide were prepared by serial dilution of a tolbutamide stock solution with blank plasma, yielding final concentrations of tolbutamide ranging from 1 to 300 μg/mL of plasma.
The HPLC system consisted of an Agilent 1100 series LC System (Palo Alto, CA) and an Agilent Zorbax Eclipse XDB-C8 column (3 μm, 3.0 mm × 150 mm), interfaced to an Agilent MSD mass spectrometer equipped with an electrospray ionization source. Column temperature was set at 25°C. The initial mobile phase composition was 30% acetonitrile containing 10 mM ammonium acetate (solvent A) and 70% of 0.1% formic acid (solvent B). The following gradient system was used: 30% A to 50% A (0-1 min), 50% A to 98% A (1–3 min), 98% A (3–9 min), 98% A to 30% A (9-10 min), and 30% A (10–15 min). The flow rate was 0.5 mL/min. Sample injection volume was 10 μL. The MS data acquisition was via selected ion monitoring. The positive ion of the testing compound was selected, and the peak size was measured. The area under the plasma tolbutamide concentration versus time curve (AUC) was calculated by using the trapezoidal method.

CYP1A2 = experiment: Methoxyresorufin O-demethylation in liver microsomes of treated rats; assay type: in vivo; conditions: rat liver microsomes; oral 2 g/kg APE or 50 mg/kg AND daily for 5 days
Description: as §1

UDP-glucuronosyltransferase activity [1]: 21.1 ± 6.5^a nmol/min/mg protein
Testosterone 6β-hydroxylase (3A) (CYP3A): 1195 ± 284^b pmol/min/mg protein
Lauric acid 12-hydroxylase (4A) (CYP4A): 214 ± 88 pmol/min/mg protein
Cytochrome b5 content (Cytochrome b5): 327 ± 79 pmol/mg protein
Methoxyresorufin O-demethylase (1A2) (CYP1A2): 25.6 ± 7.2^b pmol/min/mg protein
Compound: C=C1CC[C@@H]2[C@](C)(CO)[C@H](O)CC[C@@]2(C)[C@@H]1C/C=C1/C(=O)OC[C@H]1O [andrographolide, Andrographolide]
Reduction of the AUC0–12 h of tolbutamide compared with controls [2]: 18%
